US20240148717A1, “COMBINATION THERAPY FOR TREATMENT OF CONDITIONS ASSOCIATED WITH AGING” (priority 2021, published 2024)

Tests used:
gray hair = assay: Case study Patient A: hydroxychloroquine and curcumin added at end of therapy, gray hair; assay type: in vivo, human; details: hydroxychloroquine 200 mg per day for one month plus curcumin 3 g per day, added at end of therapy (FIG. 7)
Description: Patient reported the following improvements—including the *very surprising* disappearance of minor symptoms they had not been aware of beforehand. A summary follows: • Eyes. Vision blur resolved almost completely. • Brain. Improved cognitive functions short-and-long-term memory (they reported faster typing). • Numbness. Some minor parts of their body that had been numb since the 2008 neuropathy, such as the tips of the toes, started to regain sensitivity. • Body. Even in a condition of little exercise while being hospitalized the patient lost about 5 kg in 2 weeks and seemed more toned and in generally better condition (FIG. 2). • Asthma. Patient A reported better breathing. […] Joints in hands started swelling, and then healing (see FIG. 5). Arthritis has been reported both with spirochetes and Chlamydia Pneumoniae infections (Steere, 1987 [19], Porritt, 2016 [20]). • Prostate. Patient A never had prostate problems. However, they reported a larger urine flow and more frequent nocturnal penile tumescence. • Skin. Lesions and sclerotic plaques on their hands, which dated back from 2008, started healing. They resembled a sub-clinical manifestation of Acrodermatitis Chronica Atrophicans, which appears in phase 3 of European borreliosis (see FIG. 3). Incidentally, the healing process highlighted a small-scale bull's eye patterns, with a white patch and a red dot at the center (FIG. 4). […]

spirochetes = assay: Case study Patient A: penicillin G, then with Lycopene and Allicin, for neuro-spirochetosis; assay type: in vivo, human; details: 24 million units per day intravenously every 4 hours, after a few days
Experimental: A patient (below, “Patient A”) was hospitalized on 10 Jun. 2019 and reported the following symptoms: • Fatigue; • Rash similar to a syphilis rash Patient A experienced 6 months previous; • Blurred vision; and • Headache and impaired thinking.
Based on the above results Patient A was treated with aqueous crystalline penicillin G 24 million units per day, administered intravenously every 4 hours.
On 23 Feb. […] However, other spirochetes were present which could create systemic infection. Among these bacteria, Patient A had Brachyspira, a slow-growing anaerobic spirochete that can colonize the large intestine of animals including humans. While Brachyspira is known for causing diarrhea, it was recently discovered that it could also attack other organs. It was found in the Alzheimer's brain (Miklossy, 2011 [16]) and has been recently been associated with other human chronic conditions (Hampson, 2017 [17]). One human experimental infection was recently performed, where a volunteer drank cultures of Brachyspira isolated from an Australian Aboriginal child with diarrhea, and reported headaches, among other symptoms. (Hampson, 2017 [18]).
After a number of medical consultations, Patient A agreed to follow a non-standard protocol, extending penicillin treatment s to a 6+week course for neuro-spirochetosis. […]

Row | SMILES | Reversal of gray hair (gray hair) | Effect of therapy (patient feeling better, vision improving) (spirochetes)
1 | COc1cc(/C=C/C(=O)CC(=O)/C=C/c2ccc(O)c(OC)c2)ccc1O [curcumin] | partial reversal of gray hair | 
2 | CCN(CCO)CCCC(C)Nc1ccnc2cc(Cl)ccc12 (stereo not drawn) [hydroxychloroquine] | partial reversal of gray hair | 
3 | CC1(C)S[C@@H]2[C@H](NC(=O)Cc3ccccc3)C(=O)N2[C@H]1C(=O)O [aqueous crystalline penicillin G, penicillin G] |  | seemed effective
